From patent US20230012570A1, “BICYCLIC COMPOUND USED AS SELECTIVE ANDROGEN RECEPTOR MODULATOR” (MEDSHINE DISCOVERY INC., priority 2019, published 2023)
Where two headings read alike, the source gives them in different places.

Columns and labels:
[1] = tested on: muscle growth model of female rats; assay: In vivo pharmacodynamic study for muscle growth in female rats; details: female SD rats, 10 mg/kg oral, QD × 37 days
Text: Experimental Embodiment 3: In Vivo Pharmacodynamic Study of the Compounds of the Present Disclosure for Muscle Growth in Female Rats
From 16 female SD rats, 12 were selected and randomly divided into 2 groups of 6 animals each according to their body weight, with 2 spare animals in each group; the vehicle was (5% Tween 80+90% polyethylene glycol 400+5% polyvinylpyrrolidone K30): 1% carboxymethyl cellulose=1:9 (v/v).
The rats were acclimatized in the ecological feeding box for 1 week at approximately 2 months of age, and after the acclimatization period, the rats were divided equally into 2 groups (n=6) according to body weight, and the vehicle and compound 3A were administered by gavage, once a day, for 5 weeks, at which time the animals were euthanized, and the tissues (muscle tissue: levator anal muscle, vaginal smooth muscle and gastrocnemius; gonad-related tissue: clitoris) were collected by necropsy and weighed.

CYP2C9 = target: T1, CYP2C9 (Homo sapiens, UniProt P11712); assay: Human liver microsomal CYP inhibition experiment, CYP2C9; format: in vitro ADME
T1 construct: Mixed human liver microsomes (HLM) were purchased from Corning Inc; tissue Corning Inc. or XenoTech, LLC. or other suppliers; host or cells: pooled human liver microsomes
T1 sequence (P11712 whole entry): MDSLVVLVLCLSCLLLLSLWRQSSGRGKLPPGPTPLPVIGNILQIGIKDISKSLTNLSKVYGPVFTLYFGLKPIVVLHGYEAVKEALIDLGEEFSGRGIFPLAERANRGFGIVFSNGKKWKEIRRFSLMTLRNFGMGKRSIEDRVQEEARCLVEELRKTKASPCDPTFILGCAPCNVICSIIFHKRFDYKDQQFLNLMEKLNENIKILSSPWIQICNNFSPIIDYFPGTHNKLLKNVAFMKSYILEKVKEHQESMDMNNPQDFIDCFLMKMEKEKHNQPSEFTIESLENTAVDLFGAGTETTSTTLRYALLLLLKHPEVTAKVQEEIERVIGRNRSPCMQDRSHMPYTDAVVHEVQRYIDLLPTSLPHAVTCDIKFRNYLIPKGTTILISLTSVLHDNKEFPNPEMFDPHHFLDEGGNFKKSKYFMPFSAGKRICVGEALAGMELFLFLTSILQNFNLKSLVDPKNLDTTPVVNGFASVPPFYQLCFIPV
Experimental: (§1) Experiment Embodiment 4: Human Liver Microsomal CYP Inhibition Experiment
(§2) The inhibitory effects of the test compound 3A and VK5211 on the activities of human liver microsomal cytochrome P450 isozymes (CYP1A2, CYP2C9, CYP2C19, CYP2D6 and CYP3A4) were determined.
(§3) Mixed human liver microsomes (HLM) were purchased from Corning Inc. (Steuben, New York, USA) or XenoTech, LLC. (Lenexa, Kans., USA) or other suppliers, and were stored at a temperature below −60° C. before use.
(§4) First, the test compound (10.0 mM) was gradient diluted to prepare working solution (100×final concentration), and the concentrations of the working solution were: 5.00, 1.50, 0.500, 0.150, 0.0500, 0.0150, 0.00500 mM, and a working solution of each positive inhibitor of P450 isozymes (CYP1A2, CYP2C9, CYP2C19, CYP2D6, and CYP3A4) and a specific substrate mixture thereof (5 in 1) were prepared at the same time; human liver microsomes stored in a refrigerator at a temperature lower than −60° C. were put on ice to thaw, and when all the human liver microsomes were dissolved, the microsomes were diluted with potassium phosphate buffer (PB) to prepare a working solution of a certain concentration (0.253 mg/mL). […] The concentration of metabolites produced by the probe substrate in the sample was determined by liquid chromatography-tandem mass spectrometry (LC-MS/MS) method. […]

[2] = Pharmacokinetic test in male SD rats, intravenous and intragastric administration, plasma LC-MS/MS; format: in vivo; details: rat; for AUC(0-t): read-out: Curve area (0-t) AUC0-last; for half-life: read-out: Half-life T1/2 (converted)
Text: Experimental Embodiment 2: Pharmacokinetic Test of the Compounds of the Present Disclosure
Male SD rats were used as test animals, and LC-MS/MS method was used to determine the drug concentrations in plasma of rats at different time after intravenous and intragastric administration of compound 1A, compound 3A and compound 8A. To study the pharmacokinetic behavior of the compounds in rats and to evaluate their pharmacokinetic characteristics.
2.1 Test Drugs: Compound 1A, Compound 3A and Compound 8A
2.2 Test animals: 12 healthy adult male SD rats, divided into 6 groups with 2 rats in each group. The animal was purchased from Shanghai Sippr-BK laboratory animal Co. Ltd., and the animal production license number was SOCK (Shanghai) 2013-0016.
An appropriate amount of sample was weighed, and appropriate amounts of DMSO, polyethylene glycol-15 hydroxystearate and water were added in turn according to the volume ratio of 10:10:80, and the clarified state of 0.2 mg/mL was reached after stirring and sonication for intravenous administration.
An appropriate amount of sample was weighed and dissolved in 5% Tween 80+90% polyethylene glycol 400+5% polyvinylpyrrolidone K30 solution, and the clarified state of 0.5 mg/mL was reached after stirring and sonication for intragastric administration.
12 male SD rats were divided into 6 groups, and after fasting overnight, groups 1-3 were administered intravenously with a volume of 5 mL/kg; groups 4-6 were administered by gavage with a volume of 10 mL/kg.
After compound 1A, compound 3A and compound 8A were intravenously administered to SD rats, 40 μL of blood was collected at 0.0833, 0.25, 0.5, 1, 2, 4, 8 and 24 hours, respectively, and placed in a test tube containing 2 μL of EDTA-K2. After compound 1A and compound 3A were administered by gavage, 40 μL of blood was collected at 0.25, 0.5, 1, 2, 4, 8 and 24 hours, respectively, and placed in a test tube containing 2 μL of EDTA-K2. The tubes were centrifuged at 4000 rpm for 15 minutes to separate the plasma and stored at −60° C. Animals were allowed to eat 2 hours after administration.
The content of the test compounds in the plasma of rats after intravenous and intragastric administration was determined by LC-MS/MS method. The linear range of the method was 2.00-6000 nmol/L; plasma samples were analyzed after acetonitrile precipitation protein treatment.

CYP3A4 = target: T2, CYP3A4 (Homo sapiens, UniProt P08684); assay: Human liver microsomal CYP inhibition experiment, CYP3A4; format: in vitro ADME
T2 construct: Mixed human liver microsomes (HLM) were purchased from Corning Inc; tissue Corning Inc. or XenoTech, LLC. or other suppliers; host or cells: pooled human liver microsomes
T2 sequence (P08684 whole entry): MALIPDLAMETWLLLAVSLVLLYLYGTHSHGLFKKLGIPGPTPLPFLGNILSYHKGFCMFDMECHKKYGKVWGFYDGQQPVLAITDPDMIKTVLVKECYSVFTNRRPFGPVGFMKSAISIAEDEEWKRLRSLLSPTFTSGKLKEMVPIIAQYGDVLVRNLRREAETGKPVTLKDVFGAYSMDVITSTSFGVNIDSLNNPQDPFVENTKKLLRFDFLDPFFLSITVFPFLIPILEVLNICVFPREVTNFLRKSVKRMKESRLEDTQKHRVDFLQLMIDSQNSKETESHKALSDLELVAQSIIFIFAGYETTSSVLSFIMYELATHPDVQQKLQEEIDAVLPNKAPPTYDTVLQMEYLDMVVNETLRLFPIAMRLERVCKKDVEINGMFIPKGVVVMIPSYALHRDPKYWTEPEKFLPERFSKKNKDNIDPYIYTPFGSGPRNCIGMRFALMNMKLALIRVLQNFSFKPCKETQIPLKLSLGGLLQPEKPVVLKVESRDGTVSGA
Experimental: as §1, §2, §3, §4

CYP2C19 = target: T3, CYP2C19 (Homo sapiens, UniProt P33261); assay: Human liver microsomal CYP inhibition experiment, CYP2C19; format: in vitro ADME
T3 construct: Mixed human liver microsomes (HLM) were purchased from Corning Inc; tissue Corning Inc. or XenoTech, LLC. or other suppliers; host or cells: pooled human liver microsomes
T3 sequence (P33261 whole entry): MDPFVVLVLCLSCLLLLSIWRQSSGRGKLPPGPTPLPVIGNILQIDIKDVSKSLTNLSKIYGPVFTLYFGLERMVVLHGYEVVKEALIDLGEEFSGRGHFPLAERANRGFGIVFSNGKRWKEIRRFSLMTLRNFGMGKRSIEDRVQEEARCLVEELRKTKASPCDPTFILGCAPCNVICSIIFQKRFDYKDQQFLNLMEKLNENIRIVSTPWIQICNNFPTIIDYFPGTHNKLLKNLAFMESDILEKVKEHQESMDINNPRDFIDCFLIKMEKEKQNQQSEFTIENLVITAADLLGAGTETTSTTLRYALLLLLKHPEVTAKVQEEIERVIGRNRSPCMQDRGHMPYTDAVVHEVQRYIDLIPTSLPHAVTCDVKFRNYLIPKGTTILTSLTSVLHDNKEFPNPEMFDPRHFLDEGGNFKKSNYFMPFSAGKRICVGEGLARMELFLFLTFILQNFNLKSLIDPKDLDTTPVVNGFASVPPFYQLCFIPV
Experimental: as §1, §2, §3, §4

[3] = intravenous administration, dose 1.1 (1A), 0.69 (3A), 0.716 (8A) mg/kg
[4] = po, intragastric administration, dose 4.92 (1A), 4.2 (3A), 4.59 (8A) mg/kg

N#Cc1ccc(N2CC3CC3C2C(O)C(F)(F)F)cc1Cl (single isomer, unassigned) [Compound 3A]
abnormalities / tolerability of the animals [1]: no significant abnormalities | increase of animal body weight compared with the vehicle group [1]: 20% | increase of animal muscle weight compared with the vehicle group [1]: 34% | increase of clitoral weight compared with the vehicle group (gonad-related tissue) [1]: 19% | IC50 (CYP2C9): > 50 µM | Vd ([2]; intravenous administration, dose 1.1 (1A), 0.69 (3A), 0.716 (8A) mg/kg, read-out: Apparent volume of distribution Vdss): 1.83 L/kg | clearance ([2]; intravenous administration, dose 1.1 (1A), 0.69 (3A), 0.716 (8A) mg/kg, read-out: Clearance rate Cl): 28.6 mL/min/kg | AUC(0-inf) ([2]; intravenous administration, dose 1.1 (1A), 0.69 (3A), 0.716 (8A) mg/kg, read-out: Curve area (0-inf) AUC0-inf): 1.29 µM·h | AUC(0-t) [2, 3]: 1.28 µM·h | half-life [2, 3]: 1.35 h | bioavailability ([2]; oral, intragastric vs intravenous administration, read-out: Bioavailability F): 16% | Cmax ([2]; po, intragastric administration, dose 4.92 (1A), 4.2 (3A), 4.59 (8A) mg/kg, read-out: Blood drug concentration Cmax): 262 nM | AUC(0-t) [2, 4]: 1.25 µM·h | half-life [2, 4]: 1.8 h | Tmax ([2]; po, intragastric administration, dose 4.92 (1A), 4.2 (3A), 4.59 (8A) mg/kg, read-out: Peak time Tmax): 3 h | IC50 (CYP3A4): > 50 µM | IC50 (CYP2C19): 12.1 µM
